What was measured:
[1] = Gac pulp consumed alone, 30-day feeding trial; cited from earlier work
[2] = test system: caco cell; test: Bioaccessibility studies using in-vitro digestion/caco cell techniques; type: in vitro ADME; settings: carotenoids from Gac pulp
Text: The good absorption and transport of carotenoids after gac pulp consumption are probably due to its soft texture and to these high levels of fatty acids. […] This is in sharp contrast to other carotenoid rich fruits, which show a relatively low carotenoid bioavailability due to the lack of uptake enhancing lipids.

bioavailability (bioaccessibility), in-vitro digestion/caco cell [2] | SMILES | bioavailability: change in the human circulation after feeding trial [1]
high bioavailability | CC(C)=CCC/C(C)=C/C=C/C(C)=C/C=C/C(C)=C/C=C/C=C(C)/C=C/C=C(C)/C=C/C=C(\C)CCC=C(C)C [lycopene] | significant increase
high bioavailability | CC1=C(/C=C/C(C)=C/C=C/C(C)=C/C=C/C=C(C)/C=C/C=C(C)/C=C/C2=C(C)CCCC2(C)C)C(C)(C)CCC1 [beta-carotene] | significant increase
